In US8022051B2, “Composition for protection and improvement of skin, or reinforcing skin barrier function comprising phosphatidylserine” (Doosan Corporation, priority 2004, dated 2011):

Tests used:
[1] = system: skin keratinocyte cell line (HaCaT); assay: Protection of skin keratinocytes from ultraviolet injury (MTT assay); type: cell-based, human; conditions: 25 mJ/cm^2 UVB; phosphatidylserine 20 and 40 μM, WY-14643 200 μM; 24 hours; FIG. 4
[2] = target: T1, PPAR-a (Homo sapiens, UniProt Q07869); assay: PPAR-a activation in HeLa cell line (PPRE-luciferase reporter); type: cell-based; conditions: 20 and 40 μM, eight hours; FIG. 7
T1 construct: expressed in transfected cells; host or cells: HeLa (KCLB No. 10002)
T1 sequence (Q07869 1-468): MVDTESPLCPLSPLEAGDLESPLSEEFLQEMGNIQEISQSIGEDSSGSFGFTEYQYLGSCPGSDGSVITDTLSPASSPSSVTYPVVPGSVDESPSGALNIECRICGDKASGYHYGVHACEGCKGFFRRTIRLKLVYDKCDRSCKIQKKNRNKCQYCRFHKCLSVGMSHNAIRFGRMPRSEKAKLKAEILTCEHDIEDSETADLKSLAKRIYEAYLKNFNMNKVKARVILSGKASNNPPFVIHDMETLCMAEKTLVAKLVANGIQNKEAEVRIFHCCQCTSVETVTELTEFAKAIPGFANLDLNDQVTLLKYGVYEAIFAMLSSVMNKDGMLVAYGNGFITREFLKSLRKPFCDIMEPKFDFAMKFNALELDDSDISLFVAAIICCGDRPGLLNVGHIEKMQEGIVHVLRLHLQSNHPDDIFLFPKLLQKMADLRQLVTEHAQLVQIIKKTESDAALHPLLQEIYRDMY
Procedure: (§1) In order to examine a PPAR-a activating effect of the phosphatidylserine of the invention, a following experiment was performed. At this time, it was examined activities for the PPAR-a and PPAR-γ retained.
(§2) First, a HeLa (Human epithelial carcinoma) (KCLB [Korean Cell Line Bank] No. 10002, Korea) was seeded to a 24-well plate in an amount of 2×10^4 cells/well and then cultured for a day. Next day, in order to perform a cell transfection, 200 ng of PPAR-a over-expression vector, 200 ng of PPRE (peculiar to PPAR-a)-luciferase reporter vector (Promega, USA), and 40 ng of renilla luciferase vector used as the control group in the cell (internal control, i.e., used to examine an transfection efficiency) were mixed in the OMEM (Gibco, USA) culture medium and subject to the transfection to the cell using the lipofectamin (Invitrogen, USA). After four hours, the culture medium was added to be 10% FBS and then cultured for one night. Next day, in order to measure an activity of PPAR-a, it was treated with 20 and 40 μM of phosphatidylserine and 400 μM of the clofibrate as the positive control group and then cultured for eight hours. An activity of the luciferase was measured with a luminometer using a dual luciferase assay system (Promega, USA). Also in case of PPAR-γ, the same process was performed to measure the activity. […]

[3] = target: T2, PPAR-γ (Homo sapiens, UniProt P37231); assay: PPAR-γ activation in HeLa cell line (luciferase reporter); type: cell-based; conditions: 10 and 50 μM; FIG. 7
T2 construct: expressed in transfected cells; host or cells: HeLa (KCLB No. 10002)
T2 sequence (P37231 1-505): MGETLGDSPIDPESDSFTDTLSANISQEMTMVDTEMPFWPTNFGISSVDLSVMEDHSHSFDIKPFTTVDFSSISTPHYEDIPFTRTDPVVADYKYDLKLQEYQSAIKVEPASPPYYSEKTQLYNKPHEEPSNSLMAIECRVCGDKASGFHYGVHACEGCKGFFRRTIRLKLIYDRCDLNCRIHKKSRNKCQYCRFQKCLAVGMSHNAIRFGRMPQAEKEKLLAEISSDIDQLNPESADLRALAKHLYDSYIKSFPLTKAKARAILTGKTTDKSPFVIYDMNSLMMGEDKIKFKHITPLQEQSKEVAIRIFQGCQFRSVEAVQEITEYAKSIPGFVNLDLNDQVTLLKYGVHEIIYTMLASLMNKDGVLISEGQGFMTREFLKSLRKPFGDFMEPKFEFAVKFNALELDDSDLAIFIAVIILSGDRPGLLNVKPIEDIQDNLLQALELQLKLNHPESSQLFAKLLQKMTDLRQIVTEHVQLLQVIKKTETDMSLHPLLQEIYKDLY
Procedure: as §1
as §2, with “Next day, in order to measure an activity of PPAR-a, it was treated with 20 and 40 μM of phosphatidylserine and 400 μM of the clofibrate as the positive control group and then cultured for eight hours.” left out, “activity. At this time, in case of measuring the activity of PPAR-γ, 10 and 50 μM of phosphatidylserine and 50 μM of cyglitazone (Sigma, USA) as the positive control group were treated.” for “activity.”

[4] = system: skin keratinocytes (HaCaT); assay: Protection from ROS (hydrogen peroxide) in skin keratinocytes (MTT assay); type: cell-based; conditions: FIG. 8
Procedure: In order to measure an effect of protecting the skin from the ROS in the keratinocyte by the phosphatidylserine of the invention, a following experiment was performed.
First, the skin keratinocytes (HaCaT) were seeded to the 24-well plate in an amount of 5×10^4 cells/well. Next day, it was treated with 25 μM phosphatidylserine aqueous solution (Doosan Biotech, Korea) (phosphatidylserine-treated group), 100 μM vitamin C (ascorbic acid-treated group) and 100 μM vitamin E (a-tocopherol-treated group) as the positive control group and then cultured for 24 hours. Next day, it was treated with 1 mM hydrogen peroxide (H2O2) and then cultured for about 1˜1.5 hours. Then, a cell viability was examined with the MTT assay.

In the case of phosphatidylserine, the “protection of skin keratinocytes from ultraviolet injury (cell survival, MTT)” value [1] is reported as “protected the skin keratinocytes from the ultraviolet injury”, the “activity of PPAR-a (luciferase)” value [2] is reported as “activated” and the “activity of PPAR-γ (luciferase)” value [3] is reported as “had no influence”. For the same substance, the “protection effect from reactive oxygen species compared with the positive control material” value ([4]; phosphatidylserine 25 μM versus 100 μM positive controls) was “same protection effect with a smaller amount” and the “protection effect from reactive oxygen species (cell viability, MTT)” value ([4]; phosphatidylserine 25 μM, vitamin C 100 μM, vitamin E 100 μM, 24 hours, then 1 mM H2O2 about 1-1.5 hours) was “exhibited the protection effect”.
